This note sets out measurements from patent US10336739B2, “4-hydroxy-3-(heteroaryl)pyridine-2-one APJ agonists” (BRISTOL-MYERS SQUIBB COMPANY, priority 2015, dated 2019).

pEC50: −log10 of the molar value.

In one test the target is human APJ receptor (Homo sapiens (Human), UniProt P35414). Put plainly: Intracellular cAMP accumulation assay (APJ hcAMP, HTRF). It counts as cell-based. The settings on record: HEK293 cells stably expressing human APJ receptor; inhibition of forskolin-mediated cAMP production; read-out: Human APJ cAMP EC50 Potency range. The method in brief: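 HEK293 cells stably expressing human APJ, 5,000 per well, exposed to compound with […] IBMX and 2 μM forskolin for 30 minutes at room temperature. cAMP measured by HTRF after lysis and 60 min detection incubation. EC50 from sigmoidal variable-slope fits of inhibition of forskolin-induced cAMP, quantified against a cAMP standard curve.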
human APJ receptor, sequence (P35414 whole entry): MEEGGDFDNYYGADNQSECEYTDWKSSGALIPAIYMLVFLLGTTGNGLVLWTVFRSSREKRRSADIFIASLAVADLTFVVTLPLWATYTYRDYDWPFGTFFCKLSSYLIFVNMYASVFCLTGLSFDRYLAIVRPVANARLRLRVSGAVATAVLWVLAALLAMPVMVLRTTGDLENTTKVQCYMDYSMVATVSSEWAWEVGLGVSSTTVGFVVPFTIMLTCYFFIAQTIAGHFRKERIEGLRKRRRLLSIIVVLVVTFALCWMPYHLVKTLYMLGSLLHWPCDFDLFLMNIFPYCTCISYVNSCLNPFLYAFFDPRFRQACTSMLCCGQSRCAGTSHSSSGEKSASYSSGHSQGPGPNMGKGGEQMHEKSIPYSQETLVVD
On the technique in general: cAMP levels reflect the balance of adenylyl cyclase and phosphodiesterase activity.
Broadly, the pEC50 is −log10 of the EC50, conventionally taken in molar units. Consider `CCCCc1nc(O)c(-c2nnc(Cc3noc4cccnc34)o2)c(O)c1-c1c(OC)cccc1OC` [Example 227, 6-butyl-5-(2,6-dimethoxyphenyl)-3-(5-{[1,2]oxazolo[4,5-b]pyridin-3-ylmethyl}-1,3,4-oxadiazol-2-yl)pyridine-2,4-diol], for which the negative-log EC50 (pEC50) is 8.00 to 11.00.

In the case of `CCCCc1nc(O)c(-c2nnc(CNC)o2)c(O)c1-c1c(OC)cccc1OC` [Example 154, 6-butyl-5-(2,6-dimethoxyphenyl)-3-{5-[(methylamino)methyl]-1,3,4-oxadiazol-2-yl}pyridine-2,4-diol], the negative logarithm of the EC50 (pEC50) is 7.00 to 8.00.

The same test, now with this note: HEK293 cells stably expressing human APJ receptor; inhibition of forskolin-mediated cAMP production; read-out: hAPJ cAMP EC50 (nM) Potency range.
In general, EC50 refers to the concentration needed to bring the measured effect to its halfway point. As for `CCOCc1nc(O)c(-c2nnc(Cc3ccc(Cl)cn3)o2)c(O)c1-c1c(O)cccc1OC` [Example 275, 3-{5-[(5-chloropyridin-2-yl)methyl]-1,3,4-oxadiazol-2-yl}-6-(ethoxymethyl)-5-(2-hydroxy-6-methoxyphenyl) pyridine-2,4-diol], the concentration for a half-maximal effect (EC50) is 10 to 100 nM.

Take `C#CCNC(=O)Cc1nnc(-c2c(O)nc(CCCC)c(-c3c(OC)cccc3OC)c2O)o1` [Example 262, 2-{5-[6-butyl-5-(2,6-dimethoxyphenyl)-2,4-dihydroxy-pyridin-3-yl]-1,3,4-oxadiazol-2-yl}-N-(prop-2-yn-1-yl)acetamide]: the concentration for a half-maximal effect (EC50) is 0.01 to 10 nM.

As for `COCCOCc1nc(O)c(-c2nnc(Cc3ccc(Cl)cc3)o2)c(O)c1-c1c(OC)cccc1OC` [Example 244, 3-{5-[(4-chlorophenyl)methyl]-1,3,4-oxadiazol-2-yl}-5-(2,6-dimethoxyphenyl)-6-[(2-methoxyethoxy)methyl]pyridine-2,4-diol], the concentration giving a half-maximal response (EC50) lay in the range of 10 to 100 nM.

The test is the same for the next values; noted with them: HEK293 cells stably expressing human APJ receptor; inhibition of forskolin-mediated cAMP production; read-out: hAPJ cAMP EC50 Potency range.
Turning to `CCCCc1nc(O)c(-c2nnc(CC(=O)NCc3ccccc3)o2)c(O)c1-c1c(OC)cccc1OC` [Example 186, N-benzyl-2-{5-[6-butyl-5-(2,6-dimethoxyphenyl)-2,4-dihydroxypyridin-3-yl]-1,3,4-oxadiazol-2-yl}acetamide], the negative-log EC50 (pEC50) is 8.00 to 11.00.

As to `CCCCc1nc(O)c(-c2nnc(CN(C)C(=O)c3ccccn3)o2)c(O)c1-c1c(OC)cccc1OC` [Example 157, N-({5-[6-butyl-5-(2,6-dimethoxyphenyl)-2,4-dihydroxypyridin-3-yl]-1,3,4-oxadiazol-2-yl}methyl)-N-methylpyridine-2-carboxamide], the pEC50 is 8.00 to 11.00.

In the case of `CCCCc1nc(O)c(-c2nnc(C(C)c3ccc(Cl)cc3)o2)c(O)c1-c1c(OC)cccc1OC` (stereo not drawn) [Example 40, 6-butyl-3-{5-[1-(4-chlorophenyl)ethyl]-1,3,4-oxadiazol-2-yl}-5-(2,6-dimethoxyphenyl) pyridine-2,4-diol], the pEC50 was 8.00 to 11.00.

Regarding `CCCCc1nc(O)c(-c2nnc(Cc3cccc(OC)c3)o2)c(O)c1-c1c(OC)cccc1OC` [Example 7, 6-butyl-5-(2,6-dimethoxyphenyl)-3-{5-[(3-methoxyphenyl)methyl]-1,3,4-oxadiazol-2-yl}pyridine-2,4-diol], the pEC50 is 8.00 to 11.00.

Turning to `CCCCc1nc(O)c(-c2nnc(Cc3ccc(C(F)(F)F)cc3)o2)c(O)c1-c1c(OC)cccc1OC` [Example 80, 6-butyl-5-(2,6-dimethoxyphenyl)-3-(5-{[4-(trifluoromethyl)phenyl]methyl}-1,3,4-oxadiazol-2-yl)pyridine-2,4-diol], the pEC50 was 8.00 to 11.00.

As for `CCCCc1nc(O)c(-c2nnc(CN3C(=O)CNC3=O)o2)c(O)c1-c1c(OC)cccc1OC` [Example 113, 3-({5-[6-butyl-5-(2,6-dimethoxyphenyl)-2,4-dihydroxypyridin-3-yl]-1,3,4-oxadiazol-2-yl}methyl) imidazolidine-2,4-dione], the pEC50 is 7.00 to 8.00.

As for `CCCCc1nc(O)c(-c2nnc(Cc3ccc(OC(F)(F)F)cc3)o2)c(O)c1-c1c(OC)cccc1OC` [Example 56, 6-butyl-5-(2,6-dimethoxyphenyl)-3-(5-{[4-(trifluoromethoxy)phenyl]methyl}-1,3,4-oxadiazol-2-yl)pyridine-2,4-diol], the pEC50 is 8.00 to 11.00.

For the compound `CCCCc1nc(O)c(-c2nnc(Cc3nnn(C)n3)o2)c(O)c1-c1c(OC)cccc1OC` [Example 63, 6-butyl-5-(2,6-dimethoxyphenyl)-3-{5-[(2-methyl-2H-1,2,3,4-tetrazol-5-yl)methyl]-1,3,4-oxadiazol-2-yl}pyridine-2,4-diol], the pEC50 is 8.00 to 11.00.

`CCCCc1[nH]c(=O)c(-c2nnc(Cc3csc(C)n3)o2)c(O)c1-c1cccc(C(=O)NC(C)C)c1` [Example 149, 3-(2-butyl-4-hydroxy-5-{5-[(2-methyl-1,3-thiazol-4-yl)methyl]-1,3,4-oxadiazol-2-yl}-6-oxo-1,6-dihydropyridin-3-yl)-N-(propan-2-yl)benzamide]: the negative-log EC50 (pEC50) is 8.00 to 11.00.

For `CCCCc1nc(O)c(-c2nnc(C(C)(C)Cc3ccccc3)o2)c(O)c1-c1c(OC)cccc1OC` [Example 64, 6-butyl-5-(2,6-dimethoxyphenyl)-3-[5-(2-methyl-1-phenylpropan-2-yl)-1,3,4-oxadiazol-2-yl]pyridine-2,4-diol], the negative-log EC50 (pEC50) was 8.00 to 11.00.

As for `CCCCc1nc(O)c(-c2nnc(COc3ccc(Cl)c(Cl)c3)o2)c(O)c1-c1c(OC)cccc1OC` [Example 50, 6-butyl-3-[5-(3,4-dichlorophenoxy-methyl)-1,3,4-oxadiazol-2-yl]-5-(2,6-dimethoxyphenyl) pyridine-2,4-diol], the negative logarithm of the EC50 (pEC50) is 7.00 to 8.00.

Turning to `CCOCc1nc(O)c(-c2nnc(Cc3ccc(Cl)cc3)o2)c(O)c1-c1c(OC)cc(F)cc1OC` [Example 214, 3-{5-[(4-chlorophenyl)methyl]-1,3,4-oxadiazol-2-yl}-6-(ethoxymethyl)-5-(4-fluoro-2,6-dimethoxyphenyl) pyridine-2,4-diol], the pEC50 was 8.00 to 11.00.

Regarding `CCCCc1nc(O)c(-c2nnc(CN(C)C(=O)c3ccccc3Cl)o2)c(O)c1-c1c(OC)cccc1OC` [Example 161, N-({5-[6-butyl-5-(2,6-dimethoxyphenyl)-2,4-dihydroxypyridin-3-yl]-1,3,4-oxadiazol-2-yl}methyl)-2-chloro-N-methylbenzamide], the pEC50 is 8.00 to 11.00.

For the compound `CCCCc1nc(O)c(-c2nnc(CN3CCOCC3=O)o2)c(O)c1-c1c(OC)cccc1OC` [Example 117, 4-({5-[6-butyl-5-(2,6-dimethoxyphenyl)-2,4-dihydroxypyridin-3-yl]-1,3,4-oxadiazol-2-yl}methyl) morpholin-3-one], the pEC50 was 8.00 to 11.00.

With `CCCCc1nc(O)c(-c2nnc(CCc3nccn3C)o2)c(O)c1-c1c(OC)cccc1OC` [Example 29, 6-butyl-5-(2,6-dimethoxyphenyl)-3-{5-[2-(1-methyl-1H-imidazol-2-yl)ethyl]-1,3,4-oxadiazol-2-yl}pyridine-2,4-diol], the negative-log EC50 (pEC50) was 8.00 to 11.00.

As for `CCCCc1nc(O)c(-c2nnc(C(OC)c3ccccc3)o2)c(O)c1-c1c(OC)cccc1OC` (stereo not drawn) [Example 45, 6-butyl-5-(2,6-dimethoxyphenyl)-3-{5-[methoxy(phenyl)methyl]-1,3,4-oxadiazol-2-yl}pyridine-2,4-diol], the pEC50 was 7.00 to 8.00.

With `CCCCc1nc(O)c(-c2nnc(Cc3nnc(-c4ccccc4)[nH]3)o2)c(O)c1-c1c(OC)cccc1OC` [Example 66, 6-butyl-5-(2,6-dimethoxyphenyl)-3-{5-[(5-phenyl-4H-1,2,4-triazol-3-yl)methyl]-1,3,4-oxadiazol-2-yl}pyridine-2,4-diol], the negative-log EC50 (pEC50) was 8.00 to 11.00.

On to `CCCCc1nc(O)c(-c2nnc(Cc3noc4ccccc34)o2)c(O)c1-c1c(OC)cccc1OC` [Example 20, 3-[5-(1,2-benzoxazol-3-ylmethyl)-1,3,4-oxadiazol-2-yl]-6-butyl-5-(2,6-dimethoxyphenyl) pyridine-2,4-diol], for which the negative logarithm of the EC50 (pEC50) was 8.00 to 11.00.

In the case of `CCCCc1nc(O)c(-c2nnc(Cc3ccc(F)c(F)c3)o2)c(O)c1-c1cccc(CC)c1` [Example 140, 6-butyl-3-{5-[(3,4-difluorophenyl)methyl]-1,3,4-oxadiazol-2-yl}-5-(3-ethylphenyl) pyridine-2,4-diol], the pEC50 is 7.00 to 8.00.

`CCCCc1nc(O)c(-c2nnc(CC(=O)OCC)o2)c(O)c1-c1c(OC)cccc1OC` [Example 96, ethyl 2-{5-[6-butyl-5-(2,6-dimethoxyphenyl)-2,4-dihydroxypyridin-3-yl]-1,3,4-oxadiazol-2-yl}acetate]: the negative-log EC50 (pEC50) is 7.00 to 8.00.

`CCCCc1nc(O)c(-c2nnc(CC3CCOCC3)o2)c(O)c1-c1c(OC)cccc1OC` [Example 69, 6-butyl-5-(2,6-dimethoxyphenyl)-3-[5-(oxan-4-ylmethyl)-1,3,4-oxadiazol-2-yl]pyridine-2,4-diol]: the pEC50 is 7.00 to 8.00.

In the case of `CCOCc1nc(O)c(-c2nnc(Cc3noc(-c4ccccn4)n3)o2)c(O)c1-c1c(OC)cccc1OC` [Example 107, 5-(2,6-dimethoxyphenyl)-6-(ethoxymethyl)-3-(5-{[5-(pyridin-2-yl)-1,2,4-oxadiazol-3-yl]methyl}-1,3,4-oxadiazol-2-yl)pyridine-2,4-diol], the pEC50 is 8.00 to 11.00.

With `CCCCc1nc(O)c(-c2nnc(Cc3nc(-c4ccncc4)no3)o2)c(O)c1-c1c(OC)cccc1OC` [Example 104, 6-butyl-5-(2,6-dimethoxyphenyl)-3-(5-{[3-(pyridin-4-yl)-1,2,4-oxadiazol-5-yl]methyl}-1,3,4-oxadiazol-2-yl)pyridine-2,4-diol], the pEC50 is 8.00 to 11.00.

On to `CCCCc1nc(O)c(-c2nnc(CC(=O)N3CC(F)C3)o2)c(O)c1-c1c(OC)cccc1OC` [Example 199, 2-{5-[6-butyl-5-(2,6-dimethoxyphenyl)-2,4-dihydroxypyridin-3-yl]-1,3,4-oxadiazol-2-yl}-1-(3-fluoroazetidin-1-yl)ethan-1-one], for which the pEC50 was 8.00 to 11.00.

Staying with this test, now noted: hAPJ cAMP EC50 Potency range (nM), HEK293 cells stably expressing human APJ receptor; inhibition of forskolin-mediated cAMP production.
The compound `CCCCc1nc(O)c(-c2nnc(CN(C)C(=O)OC(C)(C)C)o2)c(O)c1-c1c(OC)cccc1OC` [Example 121, tert-butyl N-({5-[6-butyl-5-(2,6-dimethoxyphenyl)-2,4-dihydroxypyridin-3-yl]-1,3,4-oxadiazol-2-yl}methyl)-N-methylcarbamate] yielded a concentration for a half-maximal effect (EC50) of 10 to 100 nM.
